Where a SMILES comes first, the peptide text is derived from it. [ ]: non-standard residue; d: D form. Orn = NCCC[C@H](N)C(=O)O
Key:
Rattus norvegicus = species: Rattus norvegicus; experiment: In vitro potency as spasmogen relative to SP against rat colon muscularis mucosae
Cavia porcellus = species: Cavia porcellus; experiment: In vitro potency as spasmogen relative to SP against guinea pig ileum

Compound	Relative potency (Rattus norvegicus)	Relative potency (Cavia porcellus)
CO[C@H](C)[C@H](N)C(=O)N[C@@H](Cc1ccccc1)C(=O)N[C@@H](Cc1ccccc1)C(=O)NCC(=O)N[C@@H](CC(C)C)C(=O)N[C@@H](CCSC)C(N)=O (H-T(Me)FFGLM-NH2)	0.16	0.066
CSCC[C@H](NC(=O)[C@H](CC(C)C)NC(=O)CNC(=O)[C@H](Cc1ccccc1)NC(=O)[C@H](Cc1ccccc1)NC(=O)[C@@H](N)CCCN)C(N)=O (H-[Orn]FFGLM-NH2)	0.36	0.39
H-TFFGLM-NH2	0.056	0.021
H-QFFGLM-NH2	0.076	0.3
H-VFFGLM-NH2	0.15	0.067
